Results taken from patent US20130253058A1, “SATIETY-INDUCING COMPOSITION” (DSM IP ASSETS B.V., priority 2009, published 2013).
Like-named read-outs stand apart in the source and are kept apart here.

Details: 3.5 % lipids in yoghurt
Method: Analogous to example 2 four yoghurts with 3.5% fat (lipids) were followed during transit in the TNO intestinal Model (TIM).
The digestion process in the model was monitored for 5 hours. During the first 3 hours, the gastric content was gradually delivered into the small intestine via the Pyloric valve. At the end of the experiment, approximately 80% of the small intestine content was gradually delivered into the Large intestine via the Ileocecal valve.
Gastric secretions consisted of pepsin from porcine gastric mucosa (EC 3.4.23.1; Sigma-Aldrich Canada) and lipase (EC 3.1.1.3, from Rhizopus oryzae, Amano Pharmaceuticals, Japan), both dissolved in a Gastric Electrolyte Solution (GES: 3.1 g/l NaCl; 1.1 g/l KCl; 0.15 g/l CaCl2; 0.6 g/l NaHCO3). At the beginning of the experiment, a solution of trypsin from porcine pancreas (EC 3.4.21.4; Sigma-Aldrich Canada) was directly introduced into the duodenum. Also, porcine bile extract (supernatant of centrifuged, thawed bile from frozen, fresh collected porcine bile); pancreatic solution (Pancrex V powder; Paines and Byrne, UK), and intestine electrolyte solution (5.0 g/l NaCl; 0.6 g/l KCl; 0.3 g/l CaCl2 at pH 7.0) were delivered in the duodenal compartment.
Prior to testing the yoghurt containers were gently shaken to homogenise contents. At the beginning of each experiment, a 270 g amount of yoghurt was introduced into the gastric (i.e. stomach)—compartment of the TIM. At specific intervals samples were taken from different compartments of the gastro-intestinal tract (Gastric-; jejunum- and ileum lumen). A selection of fresh lumen samples were also directly visually studied by Bright Field microscope (Leica ATC2000 Binocular Microscope), equipped with a phase contrast mode.
The profile of the free fatty acid part of the lipid composition (FFA analysis) was determined by a method developed by the NIZO.
The free fatty acid level for all fatty acids in the ileum as well as the saturated fatty acid (FA) fraction C16:0 and C18:0 and higher in the ileum lumen were determined using FFA method as described above.

CCCCCCCCCCCCCCCC(=O)O [Palmitic acid]
Total FFA levels in the ileum lumen (1 h): 171.5 g FFA/kg dry matter | saturated FFA (C16:0 + C18:0 + C20:0) based on total FFA in the ileum lumen (1 h): 91.4 w/w % | Total FFA levels in the ileum lumen (2 h): 348.3 g FFA/kg dry matter | saturated FFA (C16:0 + C18:0 + C20:0) based on total FFA in the ileum lumen (2 h): 96.6 w/w % | Total FFA levels in the ileum lumen (3 h): 504.8 g FFA/kg dry matter | saturated FFA (C16:0 + C18:0 + C20:0) based on total FFA in the ileum lumen (3 h): 97.8 w/w % | Total FFA levels in the ileum lumen (4 h): 461.6 g FFA/kg dry matter | saturated FFA (C16:0 + C18:0 + C20:0) based on total FFA in the ileum lumen (4 h): 97.5 w/w % | Total FFA levels in the ileum lumen (5 h): 466.2 g FFA/kg dry matter | saturated FFA (C16:0 + C18:0 + C20:0) based on total FFA in the ileum lumen (5 h): 97.6 w/w %
